Source: ChEMBL document CHEMBL1201862, “PubChem BioAssay data set” (2004)
Activity calls are given as the source filed them.

Assays:
[1] = A cytotoxicity screen of small molecule inhibitors of the PhoP region in Salmonella typhi identified in the primary screen. [Related pubchem assays: 1850, 1864, 1985 ]; type: functional
[2] = target: T1, Eukaryotic translation initiation factor 2-alpha kinase 3 (Homo sapiens, UniProt Q9NZJ5); test: Dose response cell-based high-throughput screening assay to measure PERK inhibition. [Related pubchem assays: 1416 ]; type: functional
[3] = target: T1, Eukaryotic translation initiation factor 2-alpha kinase 3; test: Counterscreen assay for PERK inhibitors: Dose response cell-based high throughput screening assay to measure inhibition of PERK at 6 hours. [Related pubchem assays: 1522, 1416 ]; type: functional
[4] = Counterscreen for IDE inhibitors: Luminescence-based cell-based high throughput dose response assay to identify compounds that are cytotoxic to HEK cells. [Related pubchem assays: 434962 (Primary screen (IDE inhibitors in singlicate)), 449730 (Counterscreen (Cytotoxicity in triplicate)), 435028 (Confirmation (IDE inhibitors in triplicate)) …; type: functional; settings: HEK293
Insulin-degrading enzyme = target: T2, Insulin-degrading enzyme (Homo sapiens, UniProt P14735); test: Dose Response: Fluorescence polarization-based cell-based high throughput dose response assay for inhibitors of insulin-degrading enzyme (IDE). [Related pubchem assays: 434962 (Primary screen (IDE inhibitors in singlicate)), 449730 (Counterscreen (Cytotoxicity in triplicate)), 435028 (Confirmation (IDE inhibitors in triplicate)), 434984 (Summary …; type: functional
T2 sequence (P14735 whole entry): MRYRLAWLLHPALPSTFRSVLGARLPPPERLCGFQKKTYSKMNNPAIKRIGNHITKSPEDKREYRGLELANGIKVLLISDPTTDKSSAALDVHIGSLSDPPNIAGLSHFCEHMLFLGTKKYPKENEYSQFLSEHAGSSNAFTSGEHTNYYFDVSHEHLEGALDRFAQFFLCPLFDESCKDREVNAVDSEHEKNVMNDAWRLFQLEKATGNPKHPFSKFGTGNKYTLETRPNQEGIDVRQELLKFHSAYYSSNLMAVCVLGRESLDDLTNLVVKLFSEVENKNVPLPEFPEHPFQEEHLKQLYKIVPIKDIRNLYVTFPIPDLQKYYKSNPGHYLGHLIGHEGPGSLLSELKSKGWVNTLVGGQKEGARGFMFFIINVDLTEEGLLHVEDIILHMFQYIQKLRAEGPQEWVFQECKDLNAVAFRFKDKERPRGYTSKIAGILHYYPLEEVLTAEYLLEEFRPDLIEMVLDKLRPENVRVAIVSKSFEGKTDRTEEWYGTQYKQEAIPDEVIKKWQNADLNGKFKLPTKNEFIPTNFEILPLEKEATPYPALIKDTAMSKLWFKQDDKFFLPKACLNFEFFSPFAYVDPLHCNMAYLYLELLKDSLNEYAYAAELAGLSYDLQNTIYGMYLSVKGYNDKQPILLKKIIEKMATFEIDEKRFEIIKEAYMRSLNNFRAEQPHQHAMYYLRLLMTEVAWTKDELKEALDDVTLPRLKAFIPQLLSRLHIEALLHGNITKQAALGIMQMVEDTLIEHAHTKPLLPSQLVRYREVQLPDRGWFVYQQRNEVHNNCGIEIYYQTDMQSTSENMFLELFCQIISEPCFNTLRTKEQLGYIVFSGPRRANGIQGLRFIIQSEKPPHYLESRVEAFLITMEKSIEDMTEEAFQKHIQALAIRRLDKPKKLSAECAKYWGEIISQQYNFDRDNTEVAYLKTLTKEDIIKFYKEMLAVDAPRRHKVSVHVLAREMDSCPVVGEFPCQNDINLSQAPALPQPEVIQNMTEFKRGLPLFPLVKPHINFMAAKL

[5] = target: DNA dC->dU-editing enzyme APOBEC-3A (Homo sapiens, UniProt P31941); test: Dose Response confirmation of small molecule APOBEC3A DNA Deaminase Inhibitors via a fluorescence-based single-stranded DNA deaminase assay. [Related pubchem assays (depositor defined):AID493011, AID493024]; type: functional
[6] = target: DNA dC->dU-editing enzyme APOBEC-3G (Homo sapiens, UniProt Q9HC16); type: functional;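 also: Dose-response counterscreen measuring inhibition of APOBEC3G DNA deaminase activity, run while confirming APOBEC3A inhibitors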
[7] = target: Acyl-homoserine lactone acylase PvdQ (Pseudomonas aeruginosa (strain LESB58), UniProt Q9I194); test: PvdQ acylase enzyme activity blockers – biochemical, fluorescence, plate reader and imaging, cherry-picks, dose response (AID 493231)
[8] = target: T3, Corticotropin-releasing factor receptor 2/Corticotropin-releasing factor-binding protein (Homo sapiens, UniProt P24387+Q13324); test: Dose Response confirmation of uHTS hits for small molecule antagonists of the CRF-binding protein and CRF-R2 receptor complex.; type: functional; settings: read-out: IC50_Mean
T3 sequence (Q13324 whole entry): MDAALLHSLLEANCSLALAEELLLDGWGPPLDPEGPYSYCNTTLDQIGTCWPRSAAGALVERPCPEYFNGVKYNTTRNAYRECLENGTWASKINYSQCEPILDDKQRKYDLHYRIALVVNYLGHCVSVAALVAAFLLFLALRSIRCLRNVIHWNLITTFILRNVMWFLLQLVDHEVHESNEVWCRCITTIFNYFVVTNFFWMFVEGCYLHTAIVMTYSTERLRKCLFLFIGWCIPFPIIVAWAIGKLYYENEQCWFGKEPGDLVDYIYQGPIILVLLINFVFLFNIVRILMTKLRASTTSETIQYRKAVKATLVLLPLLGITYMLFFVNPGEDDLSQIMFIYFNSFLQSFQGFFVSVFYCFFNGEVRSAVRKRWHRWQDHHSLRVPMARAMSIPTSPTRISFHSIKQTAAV
T3 sequence (P24387 whole entry): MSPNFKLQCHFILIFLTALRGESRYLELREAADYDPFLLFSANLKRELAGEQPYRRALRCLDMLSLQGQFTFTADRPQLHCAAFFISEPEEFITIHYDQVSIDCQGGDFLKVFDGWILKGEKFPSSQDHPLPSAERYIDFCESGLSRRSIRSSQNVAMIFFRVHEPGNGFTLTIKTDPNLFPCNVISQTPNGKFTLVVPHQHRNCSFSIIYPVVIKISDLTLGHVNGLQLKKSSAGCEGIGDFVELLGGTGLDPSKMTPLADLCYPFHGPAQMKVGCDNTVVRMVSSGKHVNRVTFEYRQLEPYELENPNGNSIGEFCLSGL

[9] = target: T3, Corticotropin-releasing factor receptor 2/Corticotropin-releasing factor-binding protein; test: activators of CRF receptor 2 with binding protein – uHTS hits, confirmation (AID 602473); type: functional; settings: read-out: EC50_Mean
[10] = blockers of CRF-binding protein–CRF-R2 complex – cell-based, uHTS hits, 384-well, dose response (AID 651639); type: functional, Homo sapiens; settings: read-out: IC50_Mean
Cytochrome P450 2D6 = Cytochrome P450 2D6 (Homo sapiens, UniProt P10635); test: qHTS Assay for Inhibitors and Substrates of Cytochrome P450 2D6. [Related pubchem assays: 410 ]; type: ADME; settings: read-out: Potency
[11] = target: T4, RNA-binding protein pos-1 (Caenorhabditis elegans, UniProt G5EF15); test: disruptors of C. elegans POS-1 RNA interaction – biochemical, fluorescence polarization, dose response (AID 1964);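 also: purified POS-1 fused to maltose binding protein made in E. coli; potency of compounds blocking POS-1 binding to fluorescent RNA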
T4 sequence (G5EF15 whole entry): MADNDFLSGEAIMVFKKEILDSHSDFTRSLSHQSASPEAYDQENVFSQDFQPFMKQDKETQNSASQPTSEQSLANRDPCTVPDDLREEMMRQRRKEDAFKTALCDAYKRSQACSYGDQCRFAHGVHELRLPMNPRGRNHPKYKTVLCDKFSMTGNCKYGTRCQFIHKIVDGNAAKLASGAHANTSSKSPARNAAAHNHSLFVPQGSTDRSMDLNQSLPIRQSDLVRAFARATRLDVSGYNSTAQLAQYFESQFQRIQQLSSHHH

Aspartyl aminopeptidase = Aspartyl aminopeptidase (Plasmodium falciparum 3D7, UniProt Q8I2J3)
Procathepsin L = Procathepsin L (Homo sapiens, UniProt P07711)
[12] = target: T5, Zinc finger protein mex-5 (Caenorhabditis elegans, UniProt Q9XUB2); test: potency of MEX-5 RNA-binding blockers – biochemical, C. elegans, fluorescence polarization, dose response (AID 1960)
T5 sequence (Q9XUB2 whole entry): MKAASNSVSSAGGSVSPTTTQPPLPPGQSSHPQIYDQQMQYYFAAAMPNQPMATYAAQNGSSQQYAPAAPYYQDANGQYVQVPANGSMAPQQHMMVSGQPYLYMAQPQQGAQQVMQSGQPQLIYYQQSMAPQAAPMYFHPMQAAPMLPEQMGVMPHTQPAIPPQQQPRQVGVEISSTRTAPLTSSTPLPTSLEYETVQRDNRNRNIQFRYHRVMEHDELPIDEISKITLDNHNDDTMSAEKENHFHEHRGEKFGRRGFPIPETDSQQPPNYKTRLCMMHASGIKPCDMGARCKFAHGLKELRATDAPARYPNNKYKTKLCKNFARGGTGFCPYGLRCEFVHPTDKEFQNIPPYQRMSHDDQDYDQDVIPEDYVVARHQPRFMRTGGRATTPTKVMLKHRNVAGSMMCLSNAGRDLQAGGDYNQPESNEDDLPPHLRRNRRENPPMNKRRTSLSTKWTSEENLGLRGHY

Large T antigen = Large T antigen (Simian virus 40, UniProt P03070); type: functional, Betapolyomavirus macacae;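 also: Confirmatory-stage PubChem screen for compounds that inhibit SV40 T antigen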
Estrogen receptor beta = Estrogen receptor beta (Homo sapiens, UniProt Q92731);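 also: recombinant ER-beta bound to coactivator SRC1 peptide in presence of estradiol agonist; inhibitors block coactivator peptide binding and lower the FRET signal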
[13] = target: T6, Voltage-dependent T-type calcium channel subunit alpha-1H (Homo sapiens, UniProt O95180); type: functional
[14] = target: T6, Voltage-dependent T-type calcium channel subunit alpha-1H; test: Inhibitors of T-Type Calcium Channels. [Related pubchem assays (depositor defined):AID449739, AID463087, AID489005, AID493041, AID504579, AID504584, AID504619, AID504628]; type: functional
[15] = target: Cyclin-dependent kinase 5/CDK5 activator 1 (Homo sapiens, UniProt Q00535); test: blockade of human CDK5 activity – biochemical, cherry-picked samples, set 2, dose response (AID 504545)
Estrogen receptor = target: T7, Estrogen receptor (Homo sapiens, UniProt P03372); test: ERα coactivator recruitment enhancers – biochemical, TR-FRET, ERα LBD, dose response (AID 737)
T7 sequence (P03372 whole entry): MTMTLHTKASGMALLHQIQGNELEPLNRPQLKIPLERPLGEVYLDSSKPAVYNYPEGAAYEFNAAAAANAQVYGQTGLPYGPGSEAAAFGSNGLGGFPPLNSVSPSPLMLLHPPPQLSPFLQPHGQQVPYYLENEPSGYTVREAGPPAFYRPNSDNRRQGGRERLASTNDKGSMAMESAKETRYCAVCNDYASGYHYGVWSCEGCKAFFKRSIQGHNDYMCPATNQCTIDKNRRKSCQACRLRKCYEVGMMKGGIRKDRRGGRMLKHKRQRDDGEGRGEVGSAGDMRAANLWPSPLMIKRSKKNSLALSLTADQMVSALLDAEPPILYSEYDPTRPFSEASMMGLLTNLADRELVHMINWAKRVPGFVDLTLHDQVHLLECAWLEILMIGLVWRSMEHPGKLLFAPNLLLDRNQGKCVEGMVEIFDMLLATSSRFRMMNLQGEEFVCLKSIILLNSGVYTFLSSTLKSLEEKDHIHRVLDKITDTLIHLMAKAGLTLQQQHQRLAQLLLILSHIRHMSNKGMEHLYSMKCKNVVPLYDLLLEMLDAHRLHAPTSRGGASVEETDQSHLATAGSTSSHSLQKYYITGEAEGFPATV

[16] = target: Metabotropic glutamate receptor 4 (Rattus norvegicus, UniProt P31423); test: Modulation of the Metabotropic Glutamate Receptor mGluR4: Rat PAM Potency. [Related pubchem assays (depositor defined):AID2437, AID2807]; type: functional
Tumor necrosis factor = Tumor necrosis factor (Homo sapiens, UniProt P01375); test: analog potency on TNFa NF-kB signaling – cell-based, revised, SAR follow-up (AID 2337); type: functional
[17] = target: Nucleotide-binding oligomerization domain-containing protein 1 (Homo sapiens, UniProt Q9Y239); test: blockers of NOD1 pathway activity – revised, SAR follow-up (AID 2333); type: functional
[18] = target: Nucleotide-binding oligomerization domain-containing protein 2 (Homo sapiens, UniProt Q9HC29); test: PubChem AID 2334; type: functional
HEK293 = test: cells; settings: Homo sapiens;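 also: cells exposed to compound for 14 hours overnight before viability readout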

T1 sequence (Q9NZJ5 whole entry): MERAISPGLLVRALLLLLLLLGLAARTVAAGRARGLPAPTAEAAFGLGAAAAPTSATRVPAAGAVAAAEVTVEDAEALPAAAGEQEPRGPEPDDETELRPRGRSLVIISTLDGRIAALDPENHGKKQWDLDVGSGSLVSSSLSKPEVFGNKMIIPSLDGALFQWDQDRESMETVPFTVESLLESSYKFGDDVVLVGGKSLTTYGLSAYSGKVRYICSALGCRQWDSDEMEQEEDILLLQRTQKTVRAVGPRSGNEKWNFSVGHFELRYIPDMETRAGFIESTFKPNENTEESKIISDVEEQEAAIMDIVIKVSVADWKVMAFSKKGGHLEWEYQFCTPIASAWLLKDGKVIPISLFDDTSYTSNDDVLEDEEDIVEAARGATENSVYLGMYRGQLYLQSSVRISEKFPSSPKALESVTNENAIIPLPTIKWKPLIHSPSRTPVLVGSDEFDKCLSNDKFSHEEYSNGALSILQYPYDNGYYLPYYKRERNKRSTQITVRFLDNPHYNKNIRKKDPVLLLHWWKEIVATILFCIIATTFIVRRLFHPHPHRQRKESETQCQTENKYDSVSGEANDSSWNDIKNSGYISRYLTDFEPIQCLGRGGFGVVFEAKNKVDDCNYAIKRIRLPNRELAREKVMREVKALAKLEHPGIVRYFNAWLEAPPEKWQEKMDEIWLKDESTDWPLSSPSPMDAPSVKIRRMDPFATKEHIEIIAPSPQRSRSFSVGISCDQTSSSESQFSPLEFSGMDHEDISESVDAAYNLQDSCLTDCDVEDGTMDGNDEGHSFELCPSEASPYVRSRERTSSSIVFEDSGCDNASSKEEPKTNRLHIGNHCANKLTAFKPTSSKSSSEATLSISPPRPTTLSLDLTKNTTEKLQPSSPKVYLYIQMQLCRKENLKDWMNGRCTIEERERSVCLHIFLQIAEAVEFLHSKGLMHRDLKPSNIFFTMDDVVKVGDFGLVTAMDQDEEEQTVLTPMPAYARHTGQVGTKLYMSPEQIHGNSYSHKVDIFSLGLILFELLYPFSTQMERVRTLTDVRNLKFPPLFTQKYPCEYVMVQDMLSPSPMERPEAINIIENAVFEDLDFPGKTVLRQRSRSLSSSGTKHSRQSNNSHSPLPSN
T6 sequence (O95180 whole entry): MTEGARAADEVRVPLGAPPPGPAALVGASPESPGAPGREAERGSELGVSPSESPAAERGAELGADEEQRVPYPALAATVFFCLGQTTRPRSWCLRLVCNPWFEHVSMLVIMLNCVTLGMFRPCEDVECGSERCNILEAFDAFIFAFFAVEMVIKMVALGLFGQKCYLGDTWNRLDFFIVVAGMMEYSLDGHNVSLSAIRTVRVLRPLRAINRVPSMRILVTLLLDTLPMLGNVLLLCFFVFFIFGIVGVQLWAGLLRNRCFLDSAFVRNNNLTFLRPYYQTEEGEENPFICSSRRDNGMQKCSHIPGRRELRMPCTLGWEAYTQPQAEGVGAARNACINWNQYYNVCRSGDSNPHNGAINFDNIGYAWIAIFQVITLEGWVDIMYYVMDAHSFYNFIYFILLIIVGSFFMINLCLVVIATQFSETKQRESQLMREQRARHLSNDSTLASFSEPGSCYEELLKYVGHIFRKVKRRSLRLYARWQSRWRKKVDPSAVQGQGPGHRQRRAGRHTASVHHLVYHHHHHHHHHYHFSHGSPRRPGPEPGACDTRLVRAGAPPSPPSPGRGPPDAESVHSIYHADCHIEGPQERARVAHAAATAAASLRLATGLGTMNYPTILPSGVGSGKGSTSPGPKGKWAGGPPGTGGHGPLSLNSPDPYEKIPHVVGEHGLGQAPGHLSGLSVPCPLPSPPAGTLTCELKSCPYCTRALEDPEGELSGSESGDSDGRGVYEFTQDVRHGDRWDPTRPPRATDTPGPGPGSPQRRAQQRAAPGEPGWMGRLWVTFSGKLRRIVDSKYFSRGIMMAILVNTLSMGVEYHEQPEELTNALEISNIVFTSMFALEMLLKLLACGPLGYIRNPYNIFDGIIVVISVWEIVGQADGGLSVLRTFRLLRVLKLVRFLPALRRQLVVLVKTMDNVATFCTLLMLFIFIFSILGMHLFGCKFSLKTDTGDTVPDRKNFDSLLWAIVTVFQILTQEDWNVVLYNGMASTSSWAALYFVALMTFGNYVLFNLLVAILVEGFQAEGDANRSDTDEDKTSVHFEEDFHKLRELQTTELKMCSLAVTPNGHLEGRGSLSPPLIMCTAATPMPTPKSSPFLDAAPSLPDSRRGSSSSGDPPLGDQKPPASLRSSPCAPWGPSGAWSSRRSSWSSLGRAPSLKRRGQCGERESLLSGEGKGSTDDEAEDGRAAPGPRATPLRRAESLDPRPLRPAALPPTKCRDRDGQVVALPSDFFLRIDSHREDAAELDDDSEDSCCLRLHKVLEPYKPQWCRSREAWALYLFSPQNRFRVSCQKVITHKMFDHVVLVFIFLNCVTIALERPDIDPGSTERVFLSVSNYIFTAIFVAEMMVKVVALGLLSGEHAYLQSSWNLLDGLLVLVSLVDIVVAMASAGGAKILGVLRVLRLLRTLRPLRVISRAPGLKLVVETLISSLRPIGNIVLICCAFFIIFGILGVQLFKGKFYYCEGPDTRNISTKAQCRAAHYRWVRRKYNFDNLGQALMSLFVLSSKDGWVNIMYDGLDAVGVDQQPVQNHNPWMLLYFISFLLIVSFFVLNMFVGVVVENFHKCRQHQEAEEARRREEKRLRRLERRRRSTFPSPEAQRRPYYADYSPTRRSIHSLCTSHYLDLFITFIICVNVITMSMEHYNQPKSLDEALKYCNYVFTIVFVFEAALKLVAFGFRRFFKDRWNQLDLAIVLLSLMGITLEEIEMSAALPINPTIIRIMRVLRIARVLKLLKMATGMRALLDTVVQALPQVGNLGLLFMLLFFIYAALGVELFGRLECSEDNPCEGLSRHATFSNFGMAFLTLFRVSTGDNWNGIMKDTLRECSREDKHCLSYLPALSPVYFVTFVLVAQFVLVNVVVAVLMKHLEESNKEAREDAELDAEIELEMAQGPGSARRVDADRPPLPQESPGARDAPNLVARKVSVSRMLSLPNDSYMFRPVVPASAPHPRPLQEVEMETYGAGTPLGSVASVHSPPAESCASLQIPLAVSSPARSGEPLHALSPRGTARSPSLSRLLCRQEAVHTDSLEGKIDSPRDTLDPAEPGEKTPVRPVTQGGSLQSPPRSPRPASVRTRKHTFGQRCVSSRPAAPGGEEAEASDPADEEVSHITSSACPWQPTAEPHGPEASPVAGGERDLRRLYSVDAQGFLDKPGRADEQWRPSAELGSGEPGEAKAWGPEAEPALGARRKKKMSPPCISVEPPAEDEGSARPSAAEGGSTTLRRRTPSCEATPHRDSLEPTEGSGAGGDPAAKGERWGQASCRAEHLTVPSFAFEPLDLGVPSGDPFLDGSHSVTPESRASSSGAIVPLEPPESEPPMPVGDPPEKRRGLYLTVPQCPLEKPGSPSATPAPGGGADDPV
DNA dC->dU-editing enzyme APOBEC-3A, sequence (P31941 whole entry): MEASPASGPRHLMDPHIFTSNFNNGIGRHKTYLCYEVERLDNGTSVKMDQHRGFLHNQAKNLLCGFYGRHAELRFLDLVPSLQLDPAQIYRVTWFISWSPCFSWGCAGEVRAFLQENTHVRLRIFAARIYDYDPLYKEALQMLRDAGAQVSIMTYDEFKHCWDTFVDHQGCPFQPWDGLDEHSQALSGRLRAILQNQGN
Estrogen receptor beta, sequence (Q92731 whole entry): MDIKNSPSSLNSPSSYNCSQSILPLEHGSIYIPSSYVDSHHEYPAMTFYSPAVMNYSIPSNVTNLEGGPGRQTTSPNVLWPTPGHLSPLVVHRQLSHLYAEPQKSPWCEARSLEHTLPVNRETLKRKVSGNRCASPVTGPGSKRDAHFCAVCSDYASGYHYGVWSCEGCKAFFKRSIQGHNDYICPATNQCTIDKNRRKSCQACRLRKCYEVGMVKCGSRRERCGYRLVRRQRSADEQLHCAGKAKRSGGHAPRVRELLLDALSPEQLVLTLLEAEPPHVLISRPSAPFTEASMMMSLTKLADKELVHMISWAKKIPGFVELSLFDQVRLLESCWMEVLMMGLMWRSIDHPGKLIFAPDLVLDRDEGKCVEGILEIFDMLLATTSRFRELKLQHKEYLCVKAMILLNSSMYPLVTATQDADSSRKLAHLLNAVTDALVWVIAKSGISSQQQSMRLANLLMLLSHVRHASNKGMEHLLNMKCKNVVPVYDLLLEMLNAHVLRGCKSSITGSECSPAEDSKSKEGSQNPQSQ
Cytochrome P450 2D6, sequence (P10635 whole entry, the tested form may be a part): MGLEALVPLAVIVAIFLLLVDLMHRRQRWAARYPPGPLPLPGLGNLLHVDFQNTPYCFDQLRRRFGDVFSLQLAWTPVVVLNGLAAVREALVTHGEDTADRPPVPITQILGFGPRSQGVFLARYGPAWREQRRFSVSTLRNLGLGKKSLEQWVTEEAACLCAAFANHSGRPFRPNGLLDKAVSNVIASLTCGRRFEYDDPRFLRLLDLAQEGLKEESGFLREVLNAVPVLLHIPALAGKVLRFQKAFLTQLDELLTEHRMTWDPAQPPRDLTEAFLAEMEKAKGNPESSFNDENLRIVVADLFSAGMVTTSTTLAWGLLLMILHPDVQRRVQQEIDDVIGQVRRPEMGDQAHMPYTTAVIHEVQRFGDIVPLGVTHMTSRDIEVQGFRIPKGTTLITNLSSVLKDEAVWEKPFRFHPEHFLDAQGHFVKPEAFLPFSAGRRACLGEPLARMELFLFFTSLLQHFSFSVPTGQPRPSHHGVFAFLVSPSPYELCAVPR
Procathepsin L, sequence (P07711 whole entry): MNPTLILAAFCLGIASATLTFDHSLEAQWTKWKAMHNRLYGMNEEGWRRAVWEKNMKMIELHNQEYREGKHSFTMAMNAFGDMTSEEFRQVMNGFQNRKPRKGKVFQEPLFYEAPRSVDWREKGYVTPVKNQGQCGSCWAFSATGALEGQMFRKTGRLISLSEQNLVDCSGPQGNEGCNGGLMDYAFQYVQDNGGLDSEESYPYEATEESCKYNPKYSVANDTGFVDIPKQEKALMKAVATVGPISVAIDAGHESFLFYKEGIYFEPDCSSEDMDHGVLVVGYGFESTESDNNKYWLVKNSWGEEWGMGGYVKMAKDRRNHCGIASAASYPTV

SMILES: CC(C)c1ccc(NC(=O)CSc2nnc(-c3ccccn3)n2C)cc1
- EC50 [1]: > 50 µM (active)

SMILES: C[C@]12CS(=O)(=O)C[C@H]1SC(=S)N2c1ccccc1
- EC50 [2]: > 55.7 µM (not active)
- EC50 [3]: > 55.7 µM (not active)

SMILES: CCN(CC)C(=O)c1ccc(/C=C/c2c[nH]c3ccccc23)[n+](C)c1
- IC50 [4]: > 55.7 µM (not active)
- IC50 (Insulin-degrading enzyme): 16.1 µM (not active)
- IC50 [5]: 1.96 µM (active)
- IC50 [6]: 2.1 µM (active)

SMILES: O=[N+]([O-])c1cccnc1Sc1ccc(Cl)cc1
- AC50 [7]: 30.1 µM (active)
- IC50 [8]: < 368 nM (active)
- EC50 [9]: > 53 µM (inactive)
- IC50 [10]: 3.1 µM (active)

SMILES: CC(C)=CCc1c(O)cc(O)c2c1O[C@H](c1ccccc1)CC2=O [GLABRANIN]
- AC50 (Cytochrome P450 2D6): 31.6 µM (inconclusive)

SMILES: CN1CCc2cccc3c2[C@H]1Cc1ccc(O)c(O)c1-3 [APOMORPHINE]
- EC50 [11]: > 300 µM (inconclusive)
- IC50 (Aspartyl aminopeptidase): 3.67 µM (active)
- IC50 (Procathepsin L): > 59.6 µM (not active)
- EC50 [12]: 3.29 µM (active)
- IC50 (Large T antigen): 20.2 µM (active)

SMILES: COc1ccc(-c2noc(CCC(=O)N3CCN(c4cccc(C(F)(F)F)c4)CC3)n2)cc1
- IC50 (Estrogen receptor beta): > 50 µM (not active)
- EC50 [13]: 1.62 µM (active)
- EC50 [14]: 4.32 µM (active)

SMILES: Nc1nc(Nc2cccc(Cl)c2)nc(NCCO)c1[N+](=O)[O-]
- AC50 [15]: 8.21 µM (active)

SMILES: Cc1nn(-c2ccc(Cl)cc2)c2sc(C(=O)N3CCN(c4ccccn4)CC3)cc12
- EC50 (Estrogen receptor): 12.8 µM (active)

SMILES: O=C(Nc1ccc(Cl)c(Cl)c1)c1ccccn1
- EC50 [16]: 1.25 µM (active)

SMILES: CSC(S)=NN=Cc1ccc(Br)cc1
- IC50 (Tumor necrosis factor): > 20 µM (inactive)
- IC50 [17]: > 20 µM (inactive)
- IC50 [18]: > 20 µM (inactive)
- IC50 (HEK293): > 20 µM (inactive)
